Experimental data reported in patent US6537986B2, “Oxazolidinone antibacterial agents having a thiocarbonyl funtionality” (Pharmacia & Upjohn Company, priority 1997, dated 2003).
≈ marks a conversion by molar mass, not a printed value.

Experiments:
E. Faecium (EFAE 12712) = test: MIC, standard agar dilution method; type: cell-based; settings: Enterococcus faecium; Table II; key: E. Faecium; agar dilution, Mueller Hinton agar, incubated overnight at 35° C.; read-out: EFAE 12712 MIC
Procedure: (§1) MIC Test Method The in vitro MICs of test compounds were determined by a standard agar dilution method. […] Serial 2-fold dilutions of each sample are made using 1.0 ml aliquots of sterile distilled water. To each 1.0 ml aliquot of drug is added 9 ml of molten Mueller Hinton agar medium. The drug-supplemented agar is mixed, poured into 15×100 mm petri dishes, and allowed to solidify and dry prior to inoculation. Vials of each of the test organisms are maintained frozen in the vapor phase of a liquid nitrogen freezer. Test cultures are grown overnight at 35° C. on the medium appropriate for the organism. Colonies are harvested with a sterile swab, and cell suspensions are prepared in Trypticase Soy broth (TSB) to equal the turbidity of a 0.5 McFarland standard. A 1:20 dilution of each suspension is made in TSB. […] The plates are incubated overnight at 35° C. Following incubation the Minimum Inhibitory Concentration (MIC μg/ml), the lowest concentration of drug that inhibits visible growth of the organism, is read and recorded.

[1] = system: Enterococcus faecalis (EFAE 9217); test: MIC, standard agar dilution method; type: cell-based; settings: Table II, key: Enterococcus faecalis, Mueller Hinton agar, incubated overnight at 35° C., read-out: EFAE 9217 MIC
Procedure: as §1

[2] = system: Haemophilus influenzae (HINF 30063); test: MIC, standard agar dilution method; type: cell-based; settings: Haemophilus influenzae, Table II, Mueller Hinton agar, incubated overnight at 35° C.
Procedure: as §1

[3] = system: Moraxella catarrhalis (MCAT 30610); test: MIC, standard agar dilution method; type: cell-based; settings: Moraxella catarrhalis, Table II, Mueller Hinton agar, incubated overnight at 35° C.
Procedure: as §1

S. aureus (SAUR 9213) = test: MIC, standard agar dilution method; type: cell-based; settings: Staphylococcus aureus, Table II, Mueller Hinton agar, incubated overnight at 35° C., read-out: SAUR 9213 MIC
Procedure: as §1

[4] = system: S. epidermidis (SEPI 30593); test: MIC, standard agar dilution method; type: cell-based; settings: Staphylococcus epidermidis, Table II, Mueller Hinton agar, incubated overnight at 35° C.
Procedure: as §1

[5] = system: S. pneumoniae (SPNE 9912); test: MIC, standard agar dilution method; type: cell-based; settings: Streptococcus pneumoniae, Table II, Mueller Hinton agar, incubated overnight at 35° C., read-out: SPNE 9912 MIC
Procedure: as §1

S. pyogenes (SPYO 152) = test: MIC, standard agar dilution method; type: cell-based; settings: Streptococcus pyogenes, Table II, Mueller Hinton agar, incubated overnight at 35° C., read-out: SPYO 152 MIC
Procedure: as §1

| SMILES | MIC (E. Faecium (EFAE 12712)) [µg/mL] | MIC [1] [µg/mL] | MIC [2] [µg/mL] | MIC [3] [µg/mL] | MIC (S. aureus (SAUR 9213)) [µg/mL] | MIC [4] [µg/mL] | MIC [5] [µg/mL] | MIC (S. pyogenes (SPYO 152)) [µg/mL] | melting point |
| --- | --- | --- | --- | --- | --- | --- | --- | --- | --- |
| CC(=S)NC[C@H]1CN(c2ccc3c(c2)CCN3C(=O)CO)C(=O)O1 [Example 24, (S)-N-[[3-[1-(Hydroxyacetyl)-5-indolinyl]-2-oxo-5-oxazolidinyl]methyl]thioacetamide] | 0.5 (≈ 1.43 µM) | 0.5 (≈ 1.43 µM) | 4 (≈ 11.4 µM) | 2 (≈ 5.72 µM) | 1 (≈ 2.86 µM) | 0.25 (≈ 0.715 µM) | < 0.125 | 0.25 (≈ 0.715 µM) | 175 to 176 °C (dec.) |
| CC(=S)NC[C@H]1CN(c2ccc(N3CCN(C(=O)CO)CC3)c(F)c2)C(=O)O1 [Example 25, (S)-N-[[3-[3-Fluoro-4-[4-(hydroxyacetyl)-1-piperazinyl]phenyl]-2-oxo-5-oxazolidinyl]methyl]thioacetamide] | 0.5 (≈ 1.22 µM) | 0.5 (≈ 1.22 µM) | 2 (≈ 4.87 µM) | 2 (≈ 4.87 µM) | 0.5 (≈ 1.22 µM) | 0.25 (≈ 0.609 µM) | < 0.125 | < 0.125 | 163 to 165 °C |
| CC(=S)NC[C@H]1CN(c2ccc(N3CC[S+]([O-])CC3)c(F)c2)C(=O)O1 [Example 27, (S)-N-[[3-[3-Fluoro-4-(4-thiomorpholinyl)phenyl]-2-oxo-5-oxazolidinyl]methyl]thio-acetamide, thiomorpholine S-oxide] | 0.5 (≈ 1.3 µM) | 1 (≈ 2.59 µM) | 4 (≈ 10.4 µM) | 2 (≈ 5.19 µM) | 0.5 (≈ 1.3 µM) | 0.5 (≈ 1.3 µM) | < 0.125 | 0.25 (≈ 0.649 µM) | 176 to 177 °C |
| NC(=S)NC[C@H]1CN(c2ccc(N3CCN(C(=O)CO)CC3)c(F)c2)C(=O)O1 [Example 31, (S)-N-[[3-[3-Fluoro-4-[4-(hydroxyacetyl)-1-piperazinyl]phenyl]-2oxo-5-oxazolidinyl]-methyl]thiourea] | 1 (≈ 2.43 µM) | 1 (≈ 2.43 µM) | 4 (≈ 9.72 µM) | 1 (≈ 2.43 µM) | 2 (≈ 4.86 µM) | 1 (≈ 2.43 µM) | < 0.125 | 0.25 (≈ 0.608 µM) | 209 to 210 °C |

Further compounds by falling MIC (E. Faecium (EFAE 12712)), results first:

| MIC (E. Faecium (EFAE 12712)) [µg/mL] | MIC [1] [µg/mL] | MIC [2] [µg/mL] | MIC [3] [µg/mL] | MIC (S. aureus (SAUR 9213)) [µg/mL] | MIC [4] [µg/mL] | MIC [5] [µg/mL] | MIC (S. pyogenes (SPYO 152)) [µg/mL] | melting point | SMILES |
| --- | --- | --- | --- | --- | --- | --- | --- | --- | --- |
| 2 (≈ 5.14 µM) | 2 (≈ 5.14 µM) | 32 (≈ 82.2 µM) | 4 (≈ 10.3 µM) | 2 (≈ 5.14 µM) | 1 (≈ 2.57 µM) | < 0.5 | 1 (≈ 2.57 µM) | 125 to 127 °C | O=C1O[C@@H](CNC(=S)C(F)F)CN1c1ccc(N2CCOCC2)c(F)c1 [Example 18, (S)-N-[[3-[3-Fluoro-4-(4-morpholinyl)phenyl]-2-oxo-5-oxazolidinyl]methyl]-α,α-difluorothioacetamide] |
| 1 (≈ 2.71 µM) | 1 (≈ 2.71 µM) | 16 (≈ 43.3 µM) | 2 (≈ 5.41 µM) | 1 (≈ 2.71 µM) | 0.5 (≈ 1.35 µM) | 0.25 (≈ 0.677 µM) | 0.5 (≈ 1.35 µM) | 155 to 156 °C | CC(=S)NC[C@H]1CN(c2ccc(N3CCSCC3)c(F)c2)C(=O)O1 [Example 26, (S)-N-[[3-[3-Fluoro-4-(4-thiomorpholinyl)phenyl]-2-oxo-5-oxazolidinyl]methyl]thio-acetamide] |
| 0.5 (≈ 1.49 µM) | 1 (≈ 2.97 µM) | 8 (≈ 23.8 µM) | 2 (≈ 5.95 µM) | 4 (≈ 11.9 µM) | 1 (≈ 2.97 µM) | < 0.125 | 0.25 (≈ 0.743 µM) | 214 to 215 °C | NC(=S)NC[C@H]1CN(c2ccc(-n3cncn3)c(F)c2)C(=O)O1 [Example 30] |
| 0.25 (≈ 0.583 µM) | 0.25 (≈ 0.583 µM) | 2 (≈ 4.67 µM) | 0.5 (≈ 1.17 µM) | 0.25 (≈ 0.583 µM) | 0.25 (≈ 0.583 µM) | < 0.125 | < 0.125 | 110 to 111 °C (dec.) | CC(=S)NC[C@H]1CN(c2cc(F)c(N3CCN(C(=O)CO)CC3)c(F)c2)C(=O)O1 [Example 29, (S)-N-[[3-[3,5-Difluoro-4-[4-(hydroxyacetyl)-1-piperazinyl]phenyl]-2-oxo-5-oxazolidinyl]methyl]thioacetamide] |
